Laboratory results taken from patent US20200093786A1, “S[…] OF CANNABIS FOR TREATING MULTIPLE MYELOMA” (One World Cannabis LTD, priority 2014, published 2020).
Where two headings read alike, the source gives them in different places.

Assays:
[1] = test system: MM cells; conditions: CBD by itself or in synergy with bortezomib; reference [8]; cited from earlier work
[2] = test system: CD138+ cells from myeloma patients; assay: XTT cell viability and combination index, CD138+ cells from bone marrow aspirate of MM patients (Example 8); format: cell-based, human; conditions: for survival of MM cells (in words): CD138+ patient cells, each of the patients tested, concentration dependent manner, FIG. 4; for IC50: Homo sapiens, read-out: dose that caused 50% of MM cell death (IC50); for sensitivity of the patient's cells / more effective combination (in words): CD138+ cells, 48 hours
Experimental: This conversion only occurs in viable cells.
Peripheral blood samples from MM patients and healthy donors are processed by Ficoll density gradient centrifugation to isolate peripheral blood mononuclear cells (PBMCs). […] For co-culture assays MM cells are stained with CFSE, cultured in the presence of HS-5 human stroma cell line, treated with the drugs and their viability is evaluated by counterstained with PI and cell viability evaluation by flow cytometer analysis.
XTT assay was performed to assess cell viability. Each treatment was performed in triplicate and presented as mean±SE.
Combination Index (CI) value <1, =1, >1 indicates synergism, additive effect, and antagonism, respectively. Pat 1, 2, 3 indicate the patient number.

[3] = test system: RPMI-Dox40 (DOXO-resistant cells); assay: XTT cell viability, DOXO-resistant MM cells (Example 9); format: cell-based; conditions: RPMI-Dox40, 48 hours, concentration dependent manner, FIG. 5
Experimental: (§1) RPMI-MR20, RPMI-LR5 and RPMI-Dox40 were cultured during 48 hours with CBD (FIG. 5A), THC (FIG. 5B), CBD:THC 1:1 (FIG. 5C), CBD:THC 1:5 (FIG. 5D) and CBD:THC 5:1 (FIG. 5E). XTT assay was performed to assess cell viability.

[4] = test system: RPMI-LR5 (LEN-resistant cells); assay: XTT cell viability, LEN-resistant MM cells (Example 9); format: cell-based; conditions: RPMI-LR5, 48 hours, concentration dependent manner, FIG. 5
Experimental: as §1

[5] = test system: RPMI-MR20 (mitoxantrone-resistant cells); assay: XTT cell viability, mitoxantrone-resistant MM cells (Example 9); format: cell-based; conditions: RPMI-MR20, 48 hours, concentration dependent manner, FIG. 5
Experimental: as §1

SMILES	growth of MM cells (in words) [1]	survival of MM cells (in words) [2]	IC50 ([2]; CD138+ cells of patients 1 to 3, 48 hours, FIG. 4D) [µM]	sensitivity of the patient's cells / more effective combination (in words) ([2]; Patient 1 (SM, no treatment))	sensitivity of the patient's cells / more effective combination (in words) ([2]; Patient 2 (VTD))	survival of MM cells (in words) [3]	survival of MM cells (in words) [4]	survival of MM cells (in words) [5]	IC50 ([2]; 48 h) [µM]	sensitivity of the patient's cells / more effective combination (in words) ([2]; Patient 3 (VCD))
C=C(C)[C@@H]1CCC(C)=C[C@H]1c1c(O)cc(CCCCC)cc1O [CBD, Cannabidiol]	strongly inhibited growth	decreased survival	6.7 to 12.5	less sensitive to CBD than to THC	slightly more sensitive to CBD than to THC	decreased survival	decreased survival	decreased survival	–	–
CCCCCc1cc(O)c2c(c1)OC(C)(C)[C@@H]1CCC(C)=C[C@@H]21 [THC, Tetrahydrocannabinol]	–	decreased survival	–	–	–	decreased survival	decreased survival	decreased survival	6 to 35	less sensitive to THC than to CBD
